Tested on: solid tumors
Assay: Phase I trial, iv single administration every three weeks in patients with solid tumors
Format: in vivo
Conditions: one patient suffering from gastrointestinal sarcoma, dose level 5.1 mg/m^2, iv single administration every three weeks
Method: A phase I pharmacological trial was carried out to investigate the iv administration of the title compound given as a single administration every three weeks to patients with solid tumors.
The starting dose of 0.85 mg/m^2 was initially escalated in an accelerated design (100% dose increase; 1 patient/dose level) and then by a conventional dose escalation in 3-6 patient cohorts. 11 patients have been entered so far and 25 cycles have been evaluated for toxicity at dose levels of 0.85, 1.7, 3.4, 5.1 and 7.5 mg/M^2.

## C=C(Br)C(=O)Nc1cc(C(=O)Nc2cc(C(=O)Nc3cc(C(=O)Nc4cc(C(=O)NCCNC(=N)N)n(C)c4)n(C)c3)n(C)c2)n(C)c1.Cl [PNU 166196, N-(5-{[(5-{[(5-{[(2-{[amino(imino)methyl]amino}ethyl)amino]carbonyl}-1-methyl-1H-pyrrol-3-yl)amino]carbonyl}-1-methyl-1H-pyrrol-3-yl)amino]carbonyl}-1-methyl-1H-pyrrol-3-yl)-4-[(2-bromoacryloyl)amino]-11-methyl-1H-pyrrole-2-carboxamide hydrochloride]
  tumor response: partial response

From patent publication US7399748B2, “Antitumor therapy comprising distamycin derivatives” (Nerviano Medical Sciences S.r.l., priority 2001, dated 2008)
